Biological target: T1, LAT1 and 4F2HC (Homo sapiens, UniProt Q01650)
T1 construct: expressed in transfected cells; host or cells: Xenopus oocytes, injected with in vitro transcribed cRNA
Assay: 14C-gabapentin uptake into Xenopus oocytes expressing LAT1 and 4F2HC
Format: cell-based
Conditions: Xenopus oocytes injected with LAT1 and 4F2HC cRNA vs noninjected controls
From the text: To assess transport function of a specific transporter protein, it can be desirable to clone the cDNA and express the protein in cells that have low endogenous transport activity. Human LAT1 was cloned by PCR, fully sequenced, and subcloned into plasmids that can be used for expression in mammalian cells or Xenopus oocytes. The co-subunit required for LAT1 function, 4F2HC (Genbank accession AB018010), was also cloned and sequenced. Unless otherwise noted, 4F2HC was also co-expressed in each heterologous system described in the examples. […] For expression in Xenopus oocytes, in vitro LAT1 and 4F2HC cRNA was prepared and injected into defoliculated oocytes.

T1 sequence (Q01650 whole entry): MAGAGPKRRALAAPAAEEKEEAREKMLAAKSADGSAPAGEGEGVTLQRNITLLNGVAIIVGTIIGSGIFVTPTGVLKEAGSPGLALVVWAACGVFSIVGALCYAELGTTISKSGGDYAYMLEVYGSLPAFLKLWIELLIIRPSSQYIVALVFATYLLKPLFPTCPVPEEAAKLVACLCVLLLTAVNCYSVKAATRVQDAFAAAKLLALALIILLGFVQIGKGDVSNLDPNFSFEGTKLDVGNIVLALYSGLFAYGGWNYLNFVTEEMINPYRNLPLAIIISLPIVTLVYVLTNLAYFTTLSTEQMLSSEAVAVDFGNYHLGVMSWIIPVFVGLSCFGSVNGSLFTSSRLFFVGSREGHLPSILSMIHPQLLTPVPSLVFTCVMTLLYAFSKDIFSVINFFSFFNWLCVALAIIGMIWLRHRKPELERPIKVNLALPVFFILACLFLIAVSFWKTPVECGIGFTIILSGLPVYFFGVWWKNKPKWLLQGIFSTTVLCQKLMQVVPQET
T1 sequence (P08195 102-630 partner): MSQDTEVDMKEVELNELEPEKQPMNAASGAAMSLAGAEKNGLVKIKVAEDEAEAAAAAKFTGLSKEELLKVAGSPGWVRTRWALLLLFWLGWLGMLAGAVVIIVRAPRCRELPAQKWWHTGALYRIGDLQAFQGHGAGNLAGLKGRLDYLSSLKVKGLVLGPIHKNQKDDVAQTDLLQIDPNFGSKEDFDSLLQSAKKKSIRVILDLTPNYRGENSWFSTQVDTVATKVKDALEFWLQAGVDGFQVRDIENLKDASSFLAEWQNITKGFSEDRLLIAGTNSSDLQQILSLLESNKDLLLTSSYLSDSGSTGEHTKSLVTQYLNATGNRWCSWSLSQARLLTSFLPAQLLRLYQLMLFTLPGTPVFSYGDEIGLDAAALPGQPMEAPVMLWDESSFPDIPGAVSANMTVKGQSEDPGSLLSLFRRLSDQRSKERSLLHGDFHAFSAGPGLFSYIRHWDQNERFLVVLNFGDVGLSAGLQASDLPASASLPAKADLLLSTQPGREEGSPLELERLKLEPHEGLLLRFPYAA

NCC1(CC(=O)O)CCCCC1 [Gabapentin]
14C-gabapentin uptake into oocytes: higher levels of 14C-gabapentin uptake than noninjected controls

From US20060003920A1, “LAT1 transporters expressed in cancer cells” (Xenoport, Inc., priority 2004, published 2006)
